Patent publication US10144713B1, “Bis-cyclic guanidines as antibacterial agents” (UNIVERSITY OF SOUTH FLORIDA, priority 2017, dated 2018)
Like-named read-outs stand apart in the source and are kept apart here.

Tests used:
[1] = test system: K. pneumoniae (ATCC 13383); assay: MIC against K. pneumoniae; type: cell-based; conditions: Klebsiella pneumoniae, ATCC13383; Gram −; 16 h, 37° C.
Procedure: (§1) Minimum Inhibitory Concentrations (MICs) Against Bacteria.
(§2) The antimicrobial activity of the compounds was tested on the following six bacteria strains: K. pneumoniae (ATCC 13383), P. aeruginosa (ATCC27853), E. coli (ATCC 25922), vancomycin-resistant Enterococcus faecalis(ATCC 700802), Methicillin-resistant S. aureus (MRSA, ATCC 33591), Methicillin-resistant S. epidermidis (MRSE, RP62A). The procedures were followed as reported previously (Hancock et al., Immunobiology 2006, 211, 315-322). Briefly, a single colony of each bacterium was inoculated in 3 mL TSB medium and incubated overnight at 37° C. Then the bacteria culture was diluted at 1:100 and the bacteria were allowed to grow to mid-logarithmic phase. Next, 50 μL of 2-fold serial dilutions of compounds (0.1-25 μg/mL) were added the 96-well plate containing aliquots of 50 μL of bacteria suspension (1×10^6 CFU/mL) in each well. The mixture was incubated at 37° C. for 16 h, and their absorption at 600 nm wavelength was read on a Biotek Synergy HT microtiter plate reader. […] The experiments were repeated at least three times with duplicates each time. HC50 means the concentration causing 50% hemolysis.

[2] = test system: human red blood cells (hRBCs); assay: Hemolytic assay; type: cell-based; conditions: for Hemolysis (HC50): concentration causing 50% hemolysis, hRBCs, 37° C., 1 h
Procedure: The freshly drawn, K2EDTA treated human red blood cells (hRBCs) were washed with 1×PBS buffer, and centrifuged at 3500 rpm for 10 min. The step was repeated until the supernatant became clear. The supernatant was removed, and the RBCs were diluted into 5% v/v suspension. 50 μL of the suspension was incubated with 50 μL of compounds of different concentrations at 37° C. for 1 h. The mixture was centrifuged at 3500 rpm for 10 min. Subsequently, to 30 μL of the supernatant 100 μL PBS was added, and the absorbance of the mixture at 540 nm was read on a Biotek Synergy HT plate reader. The positive control was 2% Triton X-100, and the negative control was 1×PBS alone. The hemolysis activity was calculated by the formula % hemolysis=(Abssample−AbsPBS)/(AbsTriton−AbsPBS)×100%. The experiment was repeated at least three times with duplicates each time.

[3] = test system: six bacteria strains (K. pneumoniae, P. aeruginosa, E. coli, VRE, MRSA, MRSE); assay: Antimicrobial activity on the panel of six bacteria strains; type: cell-based
Procedure: as §1, §2

E. coli (ATCC 25922) = assay: MIC against E. coli; type: cell-based; conditions: Escherichia coli, ATCC25922; Gram −; 16 h, 37° C.
Procedure: as §1, §2

[4] = test system: Methicillin-resistant S. epidermidis (MRSE, RP62A); assay: MIC against MRSE; type: cell-based; conditions: Staphylococcus epidermidis, MRSE; Gram +; 16 h, 37° C.
Procedure: as §1, §2

[5] = test system: P. aeruginosa (ATCC27853); assay: MIC against P. aeruginosa; type: cell-based; conditions: for MIC: Pseudomonas aeruginosa, ATCC27853, Gram −, 16 h, 37° C.
Procedure: as §1, §2

[6] = test system: Methicillin-resistant S. aureus (MRSA, ATCC 33591); assay: MIC against MRSA; type: cell-based; conditions: Staphylococcus aureus; Gram +; 16 h, 37° C.
Procedure: as §1, §2

[7] = test system: vancomycin-resistant Enterococcus faecalis (ATCC 700802); assay: MIC against VRE; type: cell-based; conditions: Gram +; 16 h, 37° C.
Procedure: as §1, §2

S. aureus ATCC 33591 = assay: Thigh burden infection model in neutropenic mice; type: in vivo, CD-1 female mice; conditions: 5 mg/kg i.v. at 1 and 7 h after infection, thighs harvested at 25 h
Procedure: Neutropenic mice (n=4 per group) were inoculated in the posterior thigh muscles with S. aureus ATCC 33591 at 1×10^6 CFU per thigh and then treated with compounds 11 and 12 (5 mg/kg per dose) by i.v. bolus injection in the tail vein at 1 and 7 h after infection.
A thigh burden model was employed to evaluate the in vivo anti-infective activity of compounds 11 and 12, in which the thigh muscle of neutropenic mice was inoculated with S. aureus, followed by intravenous (i.v.) administration of corresponding compounds. All protocols and methods associated with animal experiments were approved by University of South Florida (USF) Institutional Animal Care and Use Committee. The in vivo experiment on the mouse model of the thigh burden infection with MRSA was conducted adapted from previously reported protocol. The CD-1 female mice which were 6 to 8 weeks old and around 25 g in weights were used for the study. Neutropenic Mice were induced by injecting cyclophosphamide (150 mg/kg) intraperitoneally twice at 4 and 1 days before bacterial inoculation. One MRSA colony from tryptic soy agar (TSA) cultures was allowed to grow in tryptic soy broth (TSB) overnight at 37° C., then 100 μL culture was withdrawn and diluted with TSB to a total volume of 4 mL, which was subsequently incubated at 37° C. for another 6 h. […] The formed colonies were counted to calculate CFU per thigh.

E. coli = assay: Time-kill study; type: cell-based
Procedure: The killing activity was monitored for the first 2 h. The concentrations for compound 11 were 2×MIC, 4×MIC, and 8×MIC, respectively.
Time-kill studies were conducted to investigate the bacterial killing kinetics of compounds 11 and 12 by using E. Coli. Briefly, the bacteria […] grew to mid-logarithmic phase in TSB medium, from which the suspension (10^6 CFU/ml) was made. The suspension was incubated with different concentrations of 11 or 12 for 10 min, 30 min, 1 h and 2 h respectively. The mixtures were diluted by 10^2 to 10^4 fold and spread on TSB agar plates. After incubation at 37° C. overnight, the colonies on the plates were counted and plotted against the incubation time. […] Cell colonies were counted in agar plates at 12.5, 25, and 50 μg/mL. Compound 11 at the concentration of 12.5 or 25 μg/mL completely removed all bacteria in 2 hours, and at 50 μg/mL it completely removed bacteria in 0.5 hour. Compound 12 killed E. Coli completely in 0.5 hour at the concentration of 12.5 μg/mL.

[8] = read-out: MIC against Gram-positive bacteria
[9] = read-out: MIC for Gram-negative bacteria (except for P. aeruginosa)

SMILES	MIC [1]	MIC [3, 8]	MIC [3, 9]	MIC (E. coli (ATCC 25922))	MIC [4]	MIC [5]	MIC [6]	MIC [7]	Hemolysis (HC50) [2]	HC50 ([2]; text b247, unit as printed)	activity against P. aeruginosa (in words) [5]	selectivity, hemolytic activity against MIC values of MRSA [2]	antibacterial activity against the tested bacteria (in words) [3]	decrease in colony-forming unit (CFU) per thigh (S. aureus ATCC 33591)	time to completely remove all bacteria (E. coli; 12.5 μg/mL)	time to completely remove all bacteria (E. coli; 25 μg/mL)	time to completely remove all bacteria (E. coli; 50 μg/mL)
N=C1N(CC(=O)Nc2ccc(NC(=O)CN3C[C@H](Cc4ccccc4)N(CCCc4ccccc4)C3=N)cc2)C[C@H](Cc2ccccc2)N1CCCc1ccccc1 [Compound 5]	1.5 to 3 µg/mL	< 3 µg/mL	< 3 µg/mL	1.5 to 3 µg/mL	0.75 µg/mL	12 to 25 µg/mL	0.33 µg/mL	0.75 µg/mL	140 µg/mL								
N=C1N(CC(=O)Nc2cccc(NC(=O)CN3C[C@H](Cc4ccccc4)N(CCCc4ccccc4)C3=N)c2)C[C@H](Cc2ccccc2)N1CCCc1ccccc1 [Compound 6]	3 µg/mL	< 3 µg/mL	< 3 µg/mL	3 to 6 µg/mL	1.5 µg/mL	12 to 25 µg/mL	1.5 to 3 µg/mL	1.5 µg/mL	>250 µg/mL								
N=C1N(CC(=O)NCCCCCCNC(=O)CN2C[C@H](Cc3ccccc3)N(CCCc3ccccc3)C2=N)C[C@H](Cc2ccccc2)N1CCCc1ccccc1 [Compound 9]	3 to 6 µg/mL			3 to 6 µg/mL	0.75 to 1.5 µg/mL	> 25 µg/mL	0.75 µg/mL	1.5 to 3 µg/mL	100 µg/mL	100 µg/mL	not active						
CCCCCCN1C(=N)N(CC(=O)Nc2ccc(NC(=O)CN3C[C@H](Cc4ccccc4)N(CCCCCC)C3=N)cc2)C[C@@H]1Cc1ccccc1 [Compound 11]	1.5 µg/mL			1.5 µg/mL	0.75 µg/mL	6 µg/mL	0.33 µg/mL	0.75 µg/mL				769 folds	potent and broad-spectrum activity	3 log10 CFU	2 h	2 h	0.5 h
CCCCCCN1C(=N)N(CC(=O)NCCCCNC(=O)CN2C[C@H](Cc3ccccc3)N(CCCCCC)C2=N)C[C@@H]1Cc1ccccc1 [Compound 13]	6 to 12 µg/mL			1.5 µg/mL	1.5 µg/mL	> 25 µg/mL	0.75 µg/mL	3 to 6 µg/mL	>250 µg/mL		reduced activity						

The next lines start with results.

MIC [1]	MIC [3, 8]	MIC [3, 9]	MIC (E. coli (ATCC 25922))	MIC [4]	MIC [5]	MIC [6]	MIC [7]	SMILES	Hemolysis (HC50) [2]	HC50 ([2]; text b247, unit as printed)	activity against P. aeruginosa (in words) [5]	selectivity, hemolytic activity against MIC values of MRSA [2]	antibacterial activity against the tested bacteria (in words) [3]	decrease in colony-forming unit (CFU) per thigh (S. aureus ATCC 33591)	time to completely remove all bacteria (E. coli; 12.5 μg/mL)	time to completely remove all bacteria (E. coli; 25 μg/mL)	time to completely remove all bacteria (E. coli; 50 μg/mL)
3 to 6 µg/mL			1.5 µg/mL	0.75 µg/mL	> 25 µg/mL	0.325 µg/mL	1.5 µg/mL	CCCCCCN1C(=N)N(CC(=O)NCCCCCCNC(=O)CN2C[C@H](Cc3ccccc3)N(CCCCCC)C2=N)C[C@@H]1Cc1ccccc1 [Compound 14]	>250 µg/mL		reduced activity						
1.5 to 3 µg/mL			0.75 to 1.5 µg/mL	1.5 µg/mL	> 25 µg/mL	0.75 µg/mL	0.325 µg/mL	CCCCCCN1C(=N)N(CC(=O)NCCCCCCCCNC(=O)CN2C[C@H](Cc3ccccc3)N(CCCCCC)C2=N)C[C@@H]1Cc1ccccc1 [Compound 15]	>250 µg/mL		reduced activity						
1.5 to 3 µg/mL			12 µg/mL	0.33 µg/mL	> 25 µg/mL	0.75 µg/mL	0.75 µg/mL	N=C1N(CC(=O)Nc2ccc(NC(=O)CN3C[C@H](Cc4ccccc4)N(CCCC4CCCCC4)C3=N)cc2)C[C@H](Cc2ccccc2)N1CCCC1CCCCC1 [Compound 19]	5 µg/mL								
1.5 to 3 µg/mL			12 µg/mL	0.33 µg/mL	> 25 µg/mL	0.325 µg/mL	1.5 µg/mL	N=C1N(CC(=O)Nc2cccc(NC(=O)CN3C[C@H](Cc4ccccc4)N(CCCC4CCCCC4)C3=N)c2)C[C@H](Cc2ccccc2)N1CCCC1CCCCC1 [Compound 20]	26 µg/mL								
0.75 µg/mL			1.5 to 3 µg/mL	1.5 µg/mL	6 to 12 µg/mL	1.5 µg/mL	0.75 µg/mL	CCCCCCN1C(=N)N(CC(=O)Nc2cccc(NC(=O)CN3C[C@H](CC(C)C)N(CCCCCC)C3=N)c2)C[C@@H]1CC(C)C [Compound 23]	200 µg/mL								
